Biological target: T1, human αVβ6 (Homo sapiens, UniProt P06756+P18564)
T1 construct: purchased R & D systems 3817-AV
Experiment: human αVβ6 HTRF binding assay
Procedure, shortened: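 HTRF binding format with biotinylated integrin, FITC-fibronectin and streptavidin-terbium, run in 20 mM Tris pH 7.4, 1 mM MgCl2, 1 mM MnCl2, 0.01% Tween 20, 0.01% BSA. A SPA-based binding assay was an alternative.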

T1 sequence (P06756 31-992 limits assumed): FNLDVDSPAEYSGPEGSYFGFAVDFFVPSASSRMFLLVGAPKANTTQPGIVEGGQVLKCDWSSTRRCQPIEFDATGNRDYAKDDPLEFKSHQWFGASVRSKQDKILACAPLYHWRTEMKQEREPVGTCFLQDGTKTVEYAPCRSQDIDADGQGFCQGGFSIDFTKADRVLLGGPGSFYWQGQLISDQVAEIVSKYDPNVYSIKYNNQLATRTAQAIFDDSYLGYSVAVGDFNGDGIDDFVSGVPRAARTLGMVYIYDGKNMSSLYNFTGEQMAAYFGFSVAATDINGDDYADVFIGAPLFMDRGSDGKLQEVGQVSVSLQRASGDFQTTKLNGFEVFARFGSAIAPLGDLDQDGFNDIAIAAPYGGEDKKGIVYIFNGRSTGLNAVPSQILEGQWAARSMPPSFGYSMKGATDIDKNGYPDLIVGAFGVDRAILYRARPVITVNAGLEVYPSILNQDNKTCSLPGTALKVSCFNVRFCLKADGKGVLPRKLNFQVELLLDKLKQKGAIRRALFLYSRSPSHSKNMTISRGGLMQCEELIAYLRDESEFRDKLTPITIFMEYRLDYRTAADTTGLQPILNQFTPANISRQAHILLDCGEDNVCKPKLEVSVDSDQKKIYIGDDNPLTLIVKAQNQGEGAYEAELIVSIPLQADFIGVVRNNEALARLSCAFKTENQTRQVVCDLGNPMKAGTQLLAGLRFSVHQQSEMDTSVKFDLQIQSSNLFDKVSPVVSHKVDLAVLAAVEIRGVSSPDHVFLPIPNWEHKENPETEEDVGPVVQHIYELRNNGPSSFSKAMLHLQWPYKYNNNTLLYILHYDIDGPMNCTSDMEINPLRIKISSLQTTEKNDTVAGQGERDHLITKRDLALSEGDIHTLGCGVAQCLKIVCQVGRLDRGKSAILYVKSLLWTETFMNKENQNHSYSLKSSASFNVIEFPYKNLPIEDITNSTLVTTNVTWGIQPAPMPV
T1 sequence (P18564 22-707 limits assumed): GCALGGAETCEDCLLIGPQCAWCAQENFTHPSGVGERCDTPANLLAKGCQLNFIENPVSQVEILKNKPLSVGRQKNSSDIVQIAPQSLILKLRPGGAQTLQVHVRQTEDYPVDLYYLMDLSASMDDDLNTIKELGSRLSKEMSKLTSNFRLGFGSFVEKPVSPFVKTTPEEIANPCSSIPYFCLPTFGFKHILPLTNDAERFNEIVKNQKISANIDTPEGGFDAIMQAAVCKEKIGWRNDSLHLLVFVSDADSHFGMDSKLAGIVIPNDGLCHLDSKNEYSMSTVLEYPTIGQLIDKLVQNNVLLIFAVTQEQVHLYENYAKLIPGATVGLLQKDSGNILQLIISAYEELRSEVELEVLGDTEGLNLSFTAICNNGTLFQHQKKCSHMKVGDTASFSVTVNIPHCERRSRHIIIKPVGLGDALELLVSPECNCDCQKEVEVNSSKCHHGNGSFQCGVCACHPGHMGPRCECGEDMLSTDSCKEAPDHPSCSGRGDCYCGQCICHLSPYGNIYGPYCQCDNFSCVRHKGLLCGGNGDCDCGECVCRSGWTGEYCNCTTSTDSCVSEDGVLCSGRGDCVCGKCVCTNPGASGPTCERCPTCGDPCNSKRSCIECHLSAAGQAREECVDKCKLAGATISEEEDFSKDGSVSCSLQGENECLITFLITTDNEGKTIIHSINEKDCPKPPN

Row | SMILES | IC50
1 | O=C(O)CC(Cc1ccccc1)NC(=O)c1cnn(CCc2ccc3c(n2)NCCC3)c1 (stereo not drawn) [Example 99] | 1420 nM
2 | C#CCOC(=O)N[C@@H](CNC(=O)c1cnn(CCc2ccc3c(n2)NCCC3)c1)C(=O)O [Example 136] | 2 nM
3 | O=C(NC[C@H](NS(=O)(=O)Cc1cccc(Br)c1)C(=O)O)c1cnn(CCc2ccc3c(n2)NCCC3)c1 [Example 156] | 21 nM
4 | CN(C(=O)c1cnn(CCc2ccc3c(n2)NCCC3)c1)[C@@H](CC(=O)O)c1cc(Cl)cc(Cl)c1 [Example 25] | 3.1 nM
5 | O=C(O)CC(NC(=O)c1cnn(CCc2ccc3c(n2)NCCC3)c1CO)c1cccc(Cl)c1 (stereo not drawn) [Example 9, 3-(3-Chlorophenyl)-3-(5-(hydroxymethyl)-1-(2-(5,6,7,8-tetrahydro-1,8-naphthyridin-2-yl)ethyl)-1H-pyrazole-4-carboxamido)propanoic acid] | 22 nM
6 | CC(C)COC(=O)N[C@@H](CNC(=O)c1cnn(CCc2ccc3c(n2)NCCC3)c1)C(=O)O [Example 131] | 0.9 nM
7 | COc1ccc([C@H](CC(=O)O)NC(=O)c2cnn(CCCNc3ccccn3)c2)cn1 [Example 94] | 592 nM
8 | CCCS(=O)(=O)N[C@@H](CNC(=O)c1cnn(CCc2ccc3c(n2)NCCC3)c1)C(=O)O [Example 138] | 4.1 nM
9 | O=C(O)C[C@H](NC(=O)c1cnn(Cc2ccc3c(n2)NCCC3)c1)c1cc(Cl)cc(Cl)c1 [Example 97] | 1170 nM
10 | CC#CCOC(=O)N[C@@H](CNC(=O)c1cnn(CCc2ccc3c(n2)NCCC3)c1)C(=O)O [Example 162] | 2.2 nM
11 | COC(=O)N[C@@H](CNC(=O)c1cnn(CCc2ccc3c(n2)NCCC3)c1)C(=O)O [Example 130] | 13 nM
12 | Cc1nn(CCc2ccc3c(n2)NCCC3)cc1C(=O)NC(CC(=O)O)c1cc(Cl)cc(Cl)c1 (stereo not drawn) [Example 70] | 112 nM
13 | COc1ccc(S(=O)(=O)N[C@@H](CNC(=O)c2cnn(CCc3ccc4c(n3)NCCC4)c2)C(=O)O)cc1 [Example 19, (S)-2-((4-Methoxyphenyl)sulfonamido)-3-(1-(2-(5,6,7,8-tetrahydro-1,8-naphthyridin-2-yl)ethyl)-1H-pyrazole-4-carboxamido)propanoic acid] | 1.3 nM
14 | O=C(O)CCN(Cc1cnn(CCc2ccc3c(n2)NCCC3)c1)C(=O)OCc1ccccc1 [Example 176, 3-(((Benzyloxy)carbonyl)((1-(2-(5,6,7,8-tetrahydro-1,8-naphthyridin-2-yl)ethyl)-1H-pyrazol-4-yl)methyl)amino)propanoic acid] | 249 nM
15 | Cc1cc(C)c(S(=O)(=O)N[C@@H](CNC(=O)c2ccnn2CCc2ccc3c(n2)NCCC3)C(=O)O)c(C)c1 [Example 115] | 34 nM
16 | Cc1nc2c(cc1CCn1ncc(C(=O)NC(CC(=O)O)c3cc(Cl)cc(Cl)c3)c1CO)CCCN2 (stereo not drawn) [Example 107] | 5000 nM
17 | O=C(O)CC(NC(=O)c1cnn(CCc2ccc3c(n2)NCCC3)c1CO)c1cccc(Oc2cc(Cl)cc(Cl)c2)c1 (stereo not drawn) [Example 38] | 13 nM
18 | COc1ccc(C(CC(=O)O)NC(=O)c2cnn(CCc3ccc4c(n3)NCCC4)c2CO)cc1 (stereo not drawn) [Example 73] | 124 nM

Row | SMILES | IC50
19 | COc1ccc([C@H](CC(=O)O)NC(=O)c2cn(CCc3ccc4c(n3)NCCC4)nc2COC(C)(C)C)cc1F [Example 1, (S)-3-(3-(tert-Butoxymethyl)-1-(2-(5,6,7,8-tetrahydro-1,8-naphthyridin-2-yl)ethyl)-1H-pyrazole-4-carboxamido)-3-(3-fluoro-4-methoxyphenyl)propanoic acid] | 771 nM
20 | CC(C)(C)OCc1c(C(=O)NC(CC(=O)O)c2cccc(Oc3cc(Cl)cc(Cl)c3)c2)cnn1CCc1ccc2c(n1)NCCC2 (stereo not drawn) [Example 51] | 28 nM
21 | N[C@@H](CNC(=O)c1cnn(CCc2ccc3c(n2)NCCC3)c1)C(=O)O [Example 11, (S)-2-Amino-3-(1-(2-(5,6,7,8-tetrahydro-1,8-naphthyridin-2-yl)ethyl)-1H-pyrazole-4-carboxamido)propanoic acid] | 121 nM
22 | COc1ccc([C@H](CC(=O)O)NC(=O)c2cnn(CCc3ccc4c(n3)NCCC4)c2COC(C)(C)C)cc1F [Example 50] | 26 nM
23 | COc1ccc([C@H](CC(=O)O)NC(=O)c2cnn(Cc3ccc4c(n3)NCCC4)c2)cn1 [Example 102] | 1980 nM
24 | O=C(O)CC(NC(=O)c1cnn(CCCc2ccc3c(n2)NCCC3)c1CO)c1cc(Cl)cc(Cl)c1 (stereo not drawn) [Example 68] | 98 nM
25 | COc1ccc([C@H](CC(=O)O)NC(=O)c2cnn(CCc3ccc4c(n3)NCCC4)c2CO)cc1F [Example 33] | 9.4 nM
26 | O=C(NC[C@H](NS(=O)(=O)Cc1ccccc1C(F)(F)F)C(=O)O)c1cnn(CCc2ccc3c(n2)NCCC3)c1 [Example 128] | 2.5 nM
27 | Cc1ccccc1[C@H](CC(=O)O)NC(=O)c1cnn(CCc2ccc3c(n2)NCCC3)c1CO [Example 92] | 416 nM
28 | COc1ccc([C@H](CC(=O)O)NC(=O)c2cnn(CCCc3ccc4c(n3)NCCC4)c2)cc1F [Example 74] | 125 nM
29 | Cc1nn(CCc2ccc3c(n2)NCCC3)c(C)c1C(=O)NC(CC(=O)O)c1cc(Cl)cc(Cl)c1 (stereo not drawn) [Example 83] | 278 nM
30 | O=C(NC[C@H](NS(=O)(=O)CC1CC1)C(=O)O)c1cnn(CCc2ccc3c(n2)NCCC3)c1 [Example 159] | 2.7 nM
31 | O=C(O)CC(NC(=O)c1cnn(CCc2ccc3c(n2)NCCC3)c1CO)c1ccccc1 (stereo not drawn) [Example 72] | 124 nM
32 | COc1ccc([C@H](CC(=O)O)NC(=O)c2cnn(CCc3ccc4c(n3)NCCC4)c2)cn1 [Example 46] | 21 nM
33 | O=C(NC[C@H](NS(=O)(=O)Cc1cccc(C(F)(F)F)c1)C(=O)O)c1cnn(CCc2ccc3c(n2)NCCC3)c1 [Example 154] | 16 nM
34 | CCCCCS(=O)(=O)N[C@@H](CNC(=O)c1cnn(CCc2ccc3c(n2)NCCC3)c1)C(=O)O [Example 144] | 2.1 nM
35 | O=C(NC[C@H](NS(=O)(=O)Cc1ccncc1)C(=O)O)c1cnn(CCc2ccc3c(n2)NCCC3)c1 [Example 167] | 9.5 nM
36 | CC(C)(C)c1cc(Br)cc([C@H](CC(=O)O)NC(=O)c2cnn(CCc3ccc4c(n3)NCCC4)c2CO)c1 [Example 26] | 5 nM
